Source: publication PMC7156458, “Synthetic biology based construction of biological activity-related library of fungal decalin-containing diterpenoid pyrones” (Nature Communications, 2020)

Target: Aβ42 (Homo sapiens, UniProt P05067)
Assay: Th-T (thioflavin-T) assay of Aβ42 aggregation
Assay type: biochemical
Conditions: for Th-T assay plate reading, mean of three wells (Supplementary Fig. 47): source data, Ab alone and No Ab as controls

Aβ42, sequence (P05067 672-713): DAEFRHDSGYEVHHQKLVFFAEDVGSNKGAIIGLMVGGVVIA

C=C1CCC2C(C)(CCC=C(C)C)C(=O)CCC2(C)C1Cc1c(O)c(C)c(C)oc1=O (stereo not shown) [Compound 8]
Th-T fluorescence, mean of three wells (Aβ42 aggregation time course, reading M118): 2.194
Th-T fluorescence, mean of three wells (Aβ42 aggregation time course, reading M119): 2.214
Th-T fluorescence, mean of three wells (Aβ42 aggregation time course, reading M120): 2.225
Th-T fluorescence, mean of three wells (Aβ42 aggregation time course, reading M121): 2.184
Th-T fluorescence, mean of three wells (Aβ42 aggregation time course, reading M122): 2.1853
Th-T fluorescence, mean of three wells (Aβ42 aggregation time course, reading M123): 2.186
Th-T fluorescence, mean of three wells (Aβ42 aggregation time course, reading M124): 2.207
Th-T fluorescence, mean of three wells (Aβ42 aggregation time course, reading M125): 2.241
Th-T fluorescence, mean of three wells (Aβ42 aggregation time course, reading M126): 2.218
Th-T fluorescence, mean of three wells (Aβ42 aggregation time course, reading M127): 2.187
Th-T fluorescence, mean of three wells (Aβ42 aggregation time course, reading M128): 2.217
Th-T fluorescence, mean of three wells (Aβ42 aggregation time course, reading M129): 2.196
Th-T fluorescence, mean of three wells (Aβ42 aggregation time course, reading M130): 2.222
Th-T fluorescence, mean of three wells (Aβ42 aggregation time course, reading M131): 2.189
Th-T fluorescence, mean of three wells (Aβ42 aggregation time course, reading M132): 2.211
Th-T fluorescence, mean of three wells (Aβ42 aggregation time course, reading M133): 2.1957
Th-T fluorescence, mean of three wells (Aβ42 aggregation time course, reading M134): 2.2077
Th-T fluorescence, mean of three wells (Aβ42 aggregation time course, reading M135): 2.191
Th-T fluorescence, mean of three wells (Aβ42 aggregation time course, reading M136): 2.198
Th-T fluorescence, mean of three wells (Supplementary Fig. 47, reading M138): 2.179
Th-T fluorescence, mean of three wells (Supplementary Fig. 47, reading M139): 2.196
Th-T fluorescence, mean of three wells (Supplementary Fig. 47, reading M140): 2.2093
Th-T fluorescence, mean of three wells (Supplementary Fig. 47, reading M141): 2.191
Th-T fluorescence, mean of three wells (Supplementary Fig. 47, reading M142): 2.182
Th-T fluorescence, mean of three wells (Supplementary Fig. 47, reading M143): 2.202
Th-T fluorescence, mean of three wells (Supplementary Fig. 47, reading M144): 2.22
Th-T fluorescence, mean of three wells (Supplementary Fig. 47, reading M145): 2.173
Th-T fluorescence, mean of three wells (Supplementary Fig. 47 source data, measurement M38 of time course): 2.163
Th-T fluorescence, mean of three wells (Supplementary Fig. 47 source data, measurement M39 of time course): 2.1439
Th-T fluorescence, mean of three wells (Supplementary Fig. 47 source data, measurement M40 of time course): 2.183
Th-T fluorescence, mean of three wells (Supplementary Fig. 47 source data, measurement M41 of time course): 2.185
Th-T fluorescence, mean of three wells (Supplementary Fig. 47 source data, measurement M42 of time course): 2.198
Th-T fluorescence, mean of three wells (Supplementary Fig. 47 source data, measurement M43 of time course): 2.197
Th-T fluorescence, mean of three wells (Supplementary Fig. 47 source data, measurement M44 of time course): 2.1886
Th-T fluorescence, mean of three wells (Supplementary Fig. 47 source data, measurement M45 of time course): 2.191
Th-T fluorescence, mean of three wells (Supplementary Fig. 47 source data, measurement M46 of time course): 2.181
Th-T fluorescence, mean of three wells (Supplementary Fig. 47 source data, measurement M47 of time course): 2.191
Th-T fluorescence, mean of three wells (Supplementary Fig. 47 source data, measurement M48 of time course): 2.202
Th-T fluorescence, mean of three wells (Supplementary Fig. 47 source data, measurement M49 of time course): 2.2088
Th-T fluorescence, mean of three wells (Supplementary Fig. 47 source data, measurement M50 of time course): 2.229
Th-T fluorescence, mean of three wells (Supplementary Fig. 47 source data, measurement M51 of time course): 2.215
Th-T fluorescence, mean of three wells (Supplementary Fig. 47 source data, measurement M52 of time course): 2.214
Th-T fluorescence, mean of three wells (Supplementary Fig. 47 source data, measurement M53 of time course): 2.236
Th-T fluorescence, mean of three wells (Supplementary Fig. 47 source data, measurement M54 of time course): 2.223
Th-T fluorescence, mean of three wells (Supplementary Fig. 47 source data, measurement M55 of time course): 2.205
Th-T fluorescence, mean of three wells (Supplementary Fig. 47 source data, measurement M56 of time course): 2.204
Th-T assay plate reading, mean of three wells (Supplementary Fig. 47) (measurement M2): 0.2095
Th-T assay plate reading, mean of three wells (Supplementary Fig. 47) (measurement M3): 0.2324
Th-T assay plate reading, mean of three wells (Supplementary Fig. 47) (measurement M4): 0.2683
Th-T assay plate reading, mean of three wells (Supplementary Fig. 47) (measurement M5): 0.2913
Th-T assay plate reading, mean of three wells (Supplementary Fig. 47) (measurement M6): 0.3294
Th-T assay plate reading, mean of three wells (Supplementary Fig. 47) (measurement M7): 0.3614
Th-T assay plate reading, mean of three wells (Supplementary Fig. 47) (measurement M8): 0.4027
Th-T assay plate reading, mean of three wells (Supplementary Fig. 47) (measurement M9): 0.444
Th-T assay plate reading, mean of three wells (Supplementary Fig. 47) (measurement M10): 0.4702
Th-T assay plate reading, mean of three wells (Supplementary Fig. 47) (measurement M11): 0.5005
Th-T assay plate reading, mean of three wells (Supplementary Fig. 47) (measurement M12): 0.5205
Th-T assay plate reading, mean of three wells (Supplementary Fig. 47) (measurement M13): 0.553
Th-T assay plate reading, mean of three wells (Supplementary Fig. 47) (measurement M14): 0.605
Th-T assay plate reading, mean of three wells (Supplementary Fig. 47) (measurement M15): 0.733
Th-T assay plate reading, mean of three wells (Supplementary Fig. 47) (measurement M16): 0.9658
Th-T fluorescence, mean of three wells (reading M18, Supplementary Fig. 47 source data): 1.528
Th-T fluorescence, mean of three wells (reading M19, Supplementary Fig. 47 source data): 1.697
Th-T fluorescence, mean of three wells (reading M20, Supplementary Fig. 47 source data): 1.804
Th-T fluorescence, mean of three wells (reading M21, Supplementary Fig. 47 source data): 1.844
Th-T fluorescence, mean of three wells (reading M22, Supplementary Fig. 47 source data): 1.86
Th-T fluorescence, mean of three wells (reading M23, Supplementary Fig. 47 source data): 1.891
Th-T fluorescence, mean of three wells (reading M24, Supplementary Fig. 47 source data): 1.925
Th-T fluorescence, mean of three wells (reading M25, Supplementary Fig. 47 source data): 1.959
Th-T fluorescence, mean of three wells (reading M26, Supplementary Fig. 47 source data): 2.003
Th-T fluorescence, mean of three wells (reading M27, Supplementary Fig. 47 source data): 2.003
Th-T fluorescence, mean of three wells (reading M28, Supplementary Fig. 47 source data): 2.0134
Th-T fluorescence, mean of three wells (reading M29, Supplementary Fig. 47 source data): 2.048
Th-T fluorescence, mean of three wells (reading M30, Supplementary Fig. 47 source data): 2.063
Th-T fluorescence, mean of three wells (reading M31, Supplementary Fig. 47 source data): 2.093
Th-T fluorescence, mean of three wells (reading M32, Supplementary Fig. 47 source data): 2.109
Th-T fluorescence, mean of three wells (reading M33, Supplementary Fig. 47 source data): 2.135
Th-T fluorescence, mean of three wells (reading M34, Supplementary Fig. 47 source data): 2.108
Th-T fluorescence, mean of three wells (reading M35, Supplementary Fig. 47 source data): 2.139
Th-T fluorescence, mean of three wells (reading M36, Supplementary Fig. 47 source data): 2.159
Th-T fluorescence, mean of three wells (time course, reading M58): 2.216
Th-T fluorescence, mean of three wells (time course, reading M59): 2.2236
Th-T fluorescence, mean of three wells (time course, reading M60): 2.219
Th-T fluorescence, mean of three wells (time course, reading M61): 2.226
Th-T fluorescence, mean of three wells (time course, reading M62): 2.227
Th-T fluorescence, mean of three wells (time course, reading M63): 2.25
Th-T fluorescence, mean of three wells (time course, reading M64): 2.223
Th-T fluorescence, mean of three wells (time course, reading M65): 2.24
Th-T fluorescence, mean of three wells (time course, reading M66): 2.247
Th-T fluorescence, mean of three wells (time course, reading M67): 2.214
Th-T fluorescence, mean of three wells (time course, reading M68): 2.201
Th-T fluorescence, mean of three wells (time course, reading M69): 2.2304
Th-T fluorescence, mean of three wells (time course, reading M70): 2.212
Th-T fluorescence, mean of three wells (time course, reading M71): 2.214
Th-T fluorescence, mean of three wells (time course, reading M72): 2.213
Th-T fluorescence, mean of three wells (time course, reading M73): 2.224
Th-T fluorescence, mean of three wells (time-course reading M98, Supplementary Fig. 47 source data): 2.211
Th-T fluorescence, mean of three wells (time-course reading M99, Supplementary Fig. 47 source data): 2.236
Th-T fluorescence, mean of three wells (time-course reading M100, Supplementary Fig. 47 source data): 2.235
Th-T fluorescence, mean of three wells (time-course reading M101, Supplementary Fig. 47 source data): 2.216
Th-T fluorescence, mean of three wells (time-course reading M102, Supplementary Fig. 47 source data): 2.236
Th-T fluorescence, mean of three wells (time-course reading M103, Supplementary Fig. 47 source data): 2.209
Th-T fluorescence, mean of three wells (time-course reading M104, Supplementary Fig. 47 source data): 2.206
Th-T fluorescence, mean of three wells (time-course reading M105, Supplementary Fig. 47 source data): 2.201
Th-T fluorescence, mean of three wells (time-course reading M106, Supplementary Fig. 47 source data): 2.237
Th-T fluorescence, mean of three wells (time-course reading M107, Supplementary Fig. 47 source data): 2.2129
Th-T fluorescence, mean of three wells (time-course reading M108, Supplementary Fig. 47 source data): 2.1995
Th-T fluorescence, mean of three wells (time-course reading M109, Supplementary Fig. 47 source data): 2.203
Th-T fluorescence, mean of three wells (time-course reading M110, Supplementary Fig. 47 source data): 2.217
Th-T fluorescence, mean of three wells (time-course reading M111, Supplementary Fig. 47 source data): 2.201
Th-T fluorescence, mean of three wells (time-course reading M112, Supplementary Fig. 47 source data): 2.214
Th-T fluorescence, mean of three wells (time-course reading M113, Supplementary Fig. 47 source data): 2.2232
Th-T fluorescence, mean of three wells (time-course reading M114, Supplementary Fig. 47 source data): 2.196
Th-T fluorescence, mean of three wells (time-course reading M115, Supplementary Fig. 47 source data): 2.1937
Th-T fluorescence, mean of three wells (time-course reading M116, Supplementary Fig. 47 source data): 2.237
